Data on 4 compounds can be found in patent EP4603105A1, “PHARMACEUTICAL COMPOSITION CONTAINING CYCLIC COMPOUND HAVING SELECTIVE KRAS INHIBITORY EFFECT AGAINST HRAS AND NRAS” (CHUGAI SEIYAKU KABUSHIKI KAISHA, priority 2022, dated 2024).

Test [1] concerns the target GDP-bound KRAS wild-type protein (Homo sapiens, UniProt P01116). In words: Binding to KRAS by surface plasmon resonance (SPR), dissociation constant KD. The conditions noted are these: Single Cycle Kinetics. Put shortly:
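Compound binding is evaluated by SPR single-cycle kinetics, with concentrations added intermittently from low to high for 75 s each. Target surfaces carry GDP-loaded biotinylated Avi-RAS at about 100–300 RU, regenerated after each cycle; temperature 30°C. A 1:1 binding model gives KD.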

The target of test [2] is GDP-bound NRAS wild-type protein (Homo sapiens, UniProt P01111). Description: Binding to NRAS by surface plasmon resonance (SPR), KD and KD ratio to KRAS. To be noted: ratio of KD for GDP-bound NRAS wild-type protein to KD for KRAS. Put shortly: (§1)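 Running buffer contained 10 µM GDP and 10 mM MgCl2 to keep RAS in the GDP state, with 4% DMSO at pH 7.4. Compounds were flowed at 100 µL/min in 75 s steps of rising concentration over captured biotin-Avi RAS at 30°C. Sensorgrams were fitted 1:1 for KD.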

The target in test [3] is HRAS wild-type protein (Homo sapiens, UniProt P01112). In words: Binding to HRAS by surface plasmon resonance (SPR), KD and KD ratio to KRAS. To be noted: ratio of KD for HRAS wild-type protein to KD for KRAS. The method, boiled down:
as §1

Test [4] deals with human lung cancer strain NCI-H441. Format: cell-based. Put shortly:
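Step one: dispense the test compound in serial DMSO dilutions. Step three: add the reagent and measure […].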

Test [5] concerns human gastric cancer strain SNU-1. Format: cell-based. The method, boiled down: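 SNU-1 gastric cancer cells, 250 cells/well in RPMI-1640 with 10% FBS, glucose, HEPES and sodium pyruvate, plated onto serially diluted compound in DMSO.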
In test [6] the test system is human pancreatic cancer strain KP4. Format: cell-based. Put shortly: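 KP4 pancreatic cancer cells seeded at 500 cells/well in DMEM/Ham's F-12 with 10% FBS onto serially diluted compound. Viability read by CellTiter-Glo luminescence.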
Test [7] deals with human colorectal cancer strain GP2d. Format: cell-based. The method, boiled down:
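Cells seeded at 500 cells/well in DMEM with 10% FBS onto serially diluted compound in DMSO, then cultured 7 days at 37°C, 5% CO2. Viability read by CellTiter-Glo luminescence.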

In test [8] the test system is human gastric cancer strain GSU. Format: cell-based. The method, boiled down: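 Cells seeded at 200 per well in RPMI-1640 with 10% FBS onto serially diluted compound (DMSO) in U-bottom plates. Viability read by CellTiter-Glo luminescence.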
The subject of test [9] is human ovarian cancer strain OV7. Format: cell-based. Put shortly: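 OV7 cells, 250 per well, in DMEM/Ham's F-12 with 5% FBS, 0.5 µg/mL hydrocortisone and 10 µg/mL insulin, grown 7 days at 37°C with serially diluted compound. Viability by CellTiter-Glo luminescence.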
The subject of test [10] is human bladder cancer strain UM-UC-3. Format: cell-based. Put shortly:
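UM-UC-3 human bladder cancer cells were seeded at 250 cells/well onto serially diluted compound in MEM with 10% FBS. Viability was read as CellTiter-Glo luminescence.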

GDP-bound NRAS wild-type protein, sequence (P01111 whole entry): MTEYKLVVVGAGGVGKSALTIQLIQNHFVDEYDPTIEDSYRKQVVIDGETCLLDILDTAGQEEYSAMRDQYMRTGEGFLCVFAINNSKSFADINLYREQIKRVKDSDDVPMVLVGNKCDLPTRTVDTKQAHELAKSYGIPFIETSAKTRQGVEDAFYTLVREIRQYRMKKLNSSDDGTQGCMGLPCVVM
GDP-bound KRAS wild-type protein, sequence (P01116 1-188 isoform P01116-2): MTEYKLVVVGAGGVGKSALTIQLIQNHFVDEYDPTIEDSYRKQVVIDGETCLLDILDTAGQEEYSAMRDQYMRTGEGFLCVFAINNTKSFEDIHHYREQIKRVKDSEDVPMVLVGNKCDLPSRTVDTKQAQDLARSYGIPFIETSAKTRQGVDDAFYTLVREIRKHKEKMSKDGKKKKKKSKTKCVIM
HRAS wild-type protein, sequence (P01112 whole entry): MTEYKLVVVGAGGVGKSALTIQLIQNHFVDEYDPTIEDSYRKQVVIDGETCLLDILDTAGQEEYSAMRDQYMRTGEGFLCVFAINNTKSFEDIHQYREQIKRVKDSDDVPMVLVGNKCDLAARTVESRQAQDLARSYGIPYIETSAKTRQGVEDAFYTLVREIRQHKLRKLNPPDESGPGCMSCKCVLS

In [1], `CCO[C@@H]1C[C@H]2C(=O)NC3(CCCC3)C(=O)N(C)[C@@H](C3CCCC3)C(=O)N(C)[C@H](C(=O)N(C)C)CC(=O)N(C)[C@@H]([C@@H](C)OC)C(=O)N[C@@H]([C@@H](C)CC)C(=O)N(C)CC(=O)N(C)[C@H]3C/C=C\CCN(C3=O)[C@@H](Cc3ccc(C(F)(F)F)cc3)C(=O)N(C)CC(=O)N[C@@H](CCc3cc(F)c(C(F)(F)F)c(F)c3)C(=O)N2C1` [PP3475, (2S,8S,12R,14S,20S,23S,27S,30S,36S,38Z)-20-cyclopentyl-8-[2-[3,5-difluoro-4-(trifluoromethyl)phenyl]ethyl]-12-ethoxy-27-[(1R)-1-methoxyethyl]-N,N,4,19,22,26,32,35-octamethyl-30-[(1S)-1-methylpropyl]-3,6,9,15,18,21,25,28,31,34,42-undecaoxo-2-[[4-(trifluoromethyl)phenyl]methyl]spiro[1,4,7,10,16,19,22,26,29,32,35-undecazatricyclo[34.5.1.0^10,14]dotetracont-38-ene-17,1'-cyclopentane]-23-carboxamide] gave a Kd of 0.076 nM. Moreover, in test [2], the “NRAS /KRAS” value is “A (a compound having 10 or more and less than 20 is denoted as A)”. In addition, the “HRAS /KRAS” value in test [3] was “A (a compound having 10 or more and less than 20 is denoted as A)”. The IC50 in [4] was determined as 7.2 nM; in [5], 2.5 nM; in test [6], 13.1 nM; in [7] it was 3.5 nM; in test [8], 0.8 nM; in test [9], 13.2 nM. Moreover, in test [10], the IC50 was 3.9 nM.

The compound `CCO[C@@H]1C[C@H]2C(=O)NC3(CCCC3)C(=O)N(C)[C@@H](C3CCCC3)C(=O)N(C)[C@H](C(=O)N(C)C)CC(=O)N(C)[C@@H](CC(C)C)C(=O)N[C@@H]([C@@H](C)CC)C(=O)N(C)CC(=O)N(C)[C@H]3C/C=C\CCN(C3=O)[C@@H](Cc3ccc(C)cc3)C(=O)N(C)CC(=O)N[C@@H](CCc3cc(F)c(C(F)(F)F)c(F)c3)C(=O)N2C1` [PP3478, (2S,8S,12R,14S,20S,23S,27S,30S,36S,38Z)-20-cyclopentyl-8-[2-[3,5-difluoro-4-(trifluoromethyl)phenyl]ethyl]-12-ethoxy-27-isobutyl-N,N,4,19,22,26,32,35-octamethyl-30-[(1S)-1-methylpropyl]-3,6,9,15,18,21,25,28,31,34,42-undecaoxo-2-(p-tolylmethyl)spiro[1,4,7,10,16,19,22,26,29,32,35-undecazatricyclo[34.5.1.0^10,14]dotetracont-38-ene-17,1'-cyclopentane]-23-carboxamide] displayed a Kd in test [1] of 0.11 nM. Further, in test [2], the “NRAS /KRAS” value is “A (a compound having 10 or more and less than 20 is denoted as A)”. In [3], the “HRAS /KRAS” value is “A (a compound having 10 or more and less than 20 is denoted as A)”. Besides, the concentration for half-maximal inhibition (IC50) in test [4] was determined as 5.8 nM; in test [5] it was 4 nM; in [6], 15.1 nM; in test [7], 5.1 nM; in [8] it was 0.9 nM; in test [9], 14.4 nM. In test [10], this compound showed an IC50 of 2.9 nM.

The compound `CCO[C@@H]1C[C@H]2C(=O)NC3(CCCC3)C(=O)N(C)[C@@H](C3CCCC3)C(=O)N(C)[C@H](C(=O)N(C)C)CC(=O)N(C)[C@@H]([C@@H](C)OC)C(=O)N[C@@H]([C@@H](C)CC)C(=O)N(C)CC(=O)N(C)[C@H]3C/C=C\CCN(C3=O)[C@@H](Cc3ccc(C)cc3)C(=O)N(C)CC(=O)N[C@@H](CCc3cc(F)c(C(F)(F)F)c(F)c3)C(=O)N2C1` [PP3481, (2S,8S,12R,14S,20S,23S,27S,30S,36S,38Z)-20-cyclopentyl-8-[2-[3,5-difluoro-4-(trifluoromethyl)phenyl]ethyl]-12-ethoxy-27-[(1R)-1-methoxyethyl]-N,N,4,19,22,26,32,35-octamethyl-30-[(1S)-1-methylpropyl]-3,6,9,15,18,21,25,28,31,34,42-undecaoxo-2-(p-tolylmethyl)spiro[1,4,7,10,16,19,22,26,29,32,35-undecazatricyclo[34.5.1.0^10,14]dotetracont-38-ene-17,1'-cyclopentane]-23-carboxamide] came in with a dissociation constant (Kd) in test [1] of 0.12 nM. For the same compound, the “NRAS /KRAS” value in test [2] is “A (a compound having 10 or more and less than 20 is denoted as A)”. The “HRAS /KRAS” value in [3] was “A (a compound having 10 or more and less than 20 is denoted as A)”. For the same compound, the IC50 in test [4] stood at 13.6 nM; in test [5], 8.2 nM; in [6] it was 25.5 nM; in test [7], 9.1 nM; in test [8], 2.1 nM; in [9] it was 24.8 nM. The IC50 in test [10] amounted to 8.7 nM.

`CCO[C@@H]1C[C@H]2C(=O)N(C)C3(CCC3)C(=O)N(C)[C@@H](C3CCCC3)C(=O)N(C)[C@H](C(=O)N(C)C)CC(=O)N(C)[C@@H](CC(C)C)C(=O)N[C@@H]([C@@H](C)CC)C(=O)N(C)CC(=O)N(C)[C@H]3C/C=C\CCN(C3=O)[C@@H](Cc3ccc(C(F)(F)F)cc3)C(=O)N(C)CC(=O)N[C@@H](CCc3cc(F)c(C(F)(F)F)c(F)c3)C(=O)N2C1` [PP3484, (2S,8S,12R,14S,20S,23S,27S,30S,36S,38Z)-20-cyclopentyl-8-[2-[3,5-difluoro-4-(trifluoromethyl)phenyl]ethyl]-12-ethoxy-27-isobutyl-N,N,4,16,19,22,26,32,35-nonamethyl-30-[(1S)-1-methylpropyl]-3,6,9,15,18,21,25,28,31,34,42-undecaoxo-2-[[4-(trifluoromethyl)phenyl]methyl]spiro[1,4,7,10,16,19,22,26,29,32,35-undecazatricyclo[34.5.1.0^10,14]dotetracont-38-ene-17,1'-cyclobutane]-23-carboxamide] displayed a Kd in [1] of 0.027 nM. For the same compound, in test [2], the “NRAS /KRAS” value is “A (a compound having 10 or more and less than 20 is denoted as A)”. Moreover, the “HRAS /KRAS” value in [3] was “A (a compound having 10 or more and less than 20 is denoted as A)”. The IC50 stood at 2.2 nM in test [4]; 3.1 nM in [5]; 1.9 nM in test [6]; 1.8 nM in [7]; 0.6 nM in test [8]; 4.1 nM in test [9]. Besides, the IC50 in [10] is 0.9 nM.
